# Laboratory results taken from EP0187619A2, “1,3-Disubstituted tetrahydropyridines” (priority 1985, dated 1986).
# Assays:
# [1] = test system: amnesiogene Wirkung eines Elektroschocks; experiment: Two-compartment test: protection against electroshock-induced amnesia; format: in vivo, Maus; settings: for antiamnesiogener Effekt: significance by Mann-Whitney U test
# Protocol: So vermindern sie an der Maus in Dosen ab etwa 0,1 mg/kg i.p. sowie p.o. die amnesiogene Wirkung eines Elektroschocks in mindestens gleichem Ausmass wie nach Verabfolgung einer nootrop wirksamen Dosis von Piracetam (100 mg/kg i.p.). Zum Nachweis der nootropen Wirkung kann beispielsweise der Two-Compartment-Test herangezogen werden.
# Als Literatur über pharmakologische Modelle dieser Art seien z.B. genannt: S.J. Sara und D. Lefevre, Paychopharmacologia 25, 32-40 (1972), Hypoxia-induced amnesia in one-trial learning and pharmacological protection by piracetam. Boggan, W.O., und Schlesinger, K., in Behavioral Biology 12, 127-134 (1974).
# [2] = Step-down Passive Avoidance Test (Mondadori and Waser): memory improvement; format: in vivo; settings: for Gedächtnisverbesserung: significance by Mann-Whitney U test; for Dosis, um die gedächtnisverbessernde Wirkung von 0,1 mg/kg i.p. von 1-[2-(Indol-3-yl)ethyl]-1,2,5,6,-tetrahydro-pyridin-3-carbonsauremethylester zu erzielen / Dosis relativ zu 1-[2-(Indol-3-yl)ethyl]-1,2,5,6,-tetrahydro-pyridin-3-carbonsauremethylester für gleiche gedächtnisverbessernde Wirkung: i.p.; for Dosis relativ zu 1-[2-(Indol-3-yl)ethyl]-1,2,5,6,-tetrahydro-pyridin-3-carbonsauremethylester für gleiche gedächtnisverbessernde Wirkung: 10 mg/kg versus 0,1 mg/kg
# Protocol: Insbesondere zeigen die Verbindungen der Formel I eine starke gedächtnisverbessernde Wirkung im Step-down Passive Avoidance Test nach Mondadori und Waser, Psychopharmacology 63, 297-300 (1979). Die Substanzen sind wirksam bei intraperitonealer Gabe 30 Minuten vor dem Lernversuch (wirksame Dosen 0,1, 1, 10 mg/kg). Eine deutliche Wirkung war auch feststellbar bei peroraler Applikation 60 Minuten vor dem Lernversuch (wirksame Dosen 0,1, 1, 10 mg/kg) sowie bei intraperitonealer Applikation unmittelbar nach dem Lernversuch (wirksame Dosen 0,1, 1, 10 mg/kg). […] Daraus ergibt sich, dass, um die gedächtnisverbessernde Wirkung von 0,1 mg/kg i.p. von 1-[2-(Indol-3-yl)ethyl]-1,2,5,6,-tetrahydro-pyridin-3-carbonsauremethylester zu erzielen, 10 mg/kg i.p., d.h. die 100-fache Dosis eines Isomeren A, B und C benötigt werden. Die Signifikanzangaben beziehen sich, ebenso wie im vorhergehenden Absatz, auf den U-Test von Mann und Whitney.
compound,measurement,setting,value
"CCOC(=O)C1=CCCN(Cc2c[nH]c3ccccc23)C1 [Isomere B, 1-(Indol-3-yl)methyl-l,2,5,6-tetrahydro-pyridin-3-carbonsäureethylester]",antiamnesiogener Effekt,"[1]; 0,1 mg/kg i.p.","ähnlichen, jedoch weniger signifikanten (p<0,05) Effekt"
same,antiamnesiogener Effekt,[1]; 10 mg/kg i.p.,"ähnlichen, jedoch weniger signifikanten (p<0,05) Effekt"
same,antiamnesiogener Effekt,"[1]; 1,0 mg/kg i.p.","ähnlichen, jedoch weniger signifikanten (p<0,05) Effekt"
same,Gedächtnisverbesserung,"[2]; 0,1 mg/kg i.p.",keinen
same,Gedächtnisverbesserung,[2]; 10 mg/kg i.p.,"signifikanten (p<0,05) Effekt"
same,Gedächtnisverbesserung,"[2]; 1,0 mg/kg i.p.",keinen
same,"Dosis, um die gedächtnisverbessernde Wirkung von 0,1 mg/kg i.p. von 1-[2-(Indol-3-yl)ethyl]-1,2,5,6,-tetrahydro-pyridin-3-carbonsauremethylester zu erzielen",[2],10 mg/kg
same,"Dosis relativ zu 1-[2-(Indol-3-yl)ethyl]-1,2,5,6,-tetrahydro-pyridin-3-carbonsauremethylester für gleiche gedächtnisverbessernde Wirkung",[2],100 -fache Dosis
"COC(=O)C1=CN(CCc2c[nH]c3ccccc23)CCC1 [Isomere A, 1-(2-(Indol-3-yl)-ethyl]-1,4,5,6-tetrahydro-pyridin-3-carbonsäuremethylester]",antiamnesiogener Effekt,"[1]; 0,1 mg/kg i.p.",keinen signifikanten
same,antiamnesiogener Effekt,[1]; 10 mg/kg i.p.,keinen signifikanten
same,antiamnesiogener Effekt,"[1]; 1,0 mg/kg i.p.",gewissen (nur einseitig signifikanten)
same,Gedächtnisverbesserung,"[2]; 0,1 mg/kg i.p.",keinen
same,Gedächtnisverbesserung,[2]; 10 mg/kg i.p.,"signifikanten (p<0,05) Effekt"
same,Gedächtnisverbesserung,"[2]; 1,0 mg/kg i.p.",keinen
same,"Dosis, um die gedächtnisverbessernde Wirkung von 0,1 mg/kg i.p. von 1-[2-(Indol-3-yl)ethyl]-1,2,5,6,-tetrahydro-pyridin-3-carbonsauremethylester zu erzielen",[2],10 mg/kg
same,"Dosis relativ zu 1-[2-(Indol-3-yl)ethyl]-1,2,5,6,-tetrahydro-pyridin-3-carbonsauremethylester für gleiche gedächtnisverbessernde Wirkung",[2],100 -fache Dosis
"COC(=O)C1=CCCN(CCc2c[nH]c3ccccc23)C1 [1-[2-(Indol-3-yl)ethyl]-1,2,5,6-tetrahydro-pyridin-3-carbonsäuremethylester]",antiamnesiogener Effekt,"[1]; 0,1 mg/kg i.p.","hochsignifikanten (p<0,01) antiamnesiogenen Effekt"
same,antiamnesiogener Effekt,"[1]; 1,0 mg/kg i.p.","hochsignifikanten (p<0,01) antiamnesiogenen Effekt"
same,Gedächtnisverbesserung,"[2]; 0,1 mg/kg i.p.","signifikante (p<0,05)"
same,Gedächtnisverbesserung,[2]; 10 mg/kg i.p.,"hochsignifikante (p<0,01)"
same,Gedächtnisverbesserung,"[2]; 1,0 mg/kg i.p.","signifikante (p<0,05)"
"COC(=O)C1=CCN(CCc2c[nH]c3ccccc23)CC1 [Isomere C, 1-[2-(Indol-3-yl)ethyl]-1,2,5,6-tetrahydro-pyridin-4-carbonsäuremethylester]",antiamnesiogener Effekt,"[1]; 0,1 mg/kg i.p.",keine signifikante antiamnesiogene Wirkung
same,antiamnesiogener Effekt,[1]; 10 mg/kg i.p.,keine signifikante antiamnesiogene Wirkung
same,antiamnesiogener Effekt,"[1]; 1,0 mg/kg i.p.",keine signifikante antiamnesiogene Wirkung
same,Gedächtnisverbesserung,"[2]; 0,1 mg/kg i.p.",keinen
same,Gedächtnisverbesserung,[2]; 10 mg/kg i.p.,"signifikanten (p<0,05) Effekt"
same,Gedächtnisverbesserung,"[2]; 1,0 mg/kg i.p.",keinen
same,"Dosis, um die gedächtnisverbessernde Wirkung von 0,1 mg/kg i.p. von 1-[2-(Indol-3-yl)ethyl]-1,2,5,6,-tetrahydro-pyridin-3-carbonsauremethylester zu erzielen",[2],10 mg/kg
same,"Dosis relativ zu 1-[2-(Indol-3-yl)ethyl]-1,2,5,6,-tetrahydro-pyridin-3-carbonsauremethylester für gleiche gedächtnisverbessernde Wirkung",[2],100 -fache Dosis
NC(=O)CN1CCCC1=O [Piracetam],nootrop wirksame Dosis,"[1]; Maus, i.p., reference",100 mg/kg
